Each structure is given as a SMILES string. Positions count from the first letter of the chain named.

What all share (format): binding
Assay [1] concerns the target T1, olfactory marker protein (OMP) (Mus musculus, UniProt Q64288, G126E).
T1 construct: Rluc-OMP fusion, G126E mutant
T1 sequence (Q64288 2-163 G126E): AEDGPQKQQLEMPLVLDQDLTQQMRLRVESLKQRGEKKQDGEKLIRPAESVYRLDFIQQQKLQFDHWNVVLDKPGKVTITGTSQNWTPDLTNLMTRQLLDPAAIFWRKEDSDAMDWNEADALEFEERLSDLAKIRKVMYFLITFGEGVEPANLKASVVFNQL
Kind of assay: BRET from mutant Rluc-OMP to 8NBD-cAMP. (In general: BRET reads energy transfer from a luciferase to a nearby fluorophore.)

In assay [2] the target is T2, olfactory marker protein (OMP) (Mus musculus, UniProt Q64288).
T2 construct: Rluc-OMP fusion, wild type
T2 sequence (Q64288 2-163): T1 sequence (Q64288 2-163 G126E) with E125G
Kind of assay: BRET from Rluc-OMP to fluorescent 8NBD-cAMP, dose-response (EC50 taken as apparent Kd).

Assay [3] deals with T2, olfactory marker protein (OMP). Kind of assay: competitive BRET displacement of 8NBD-cAMP from Rluc-OMP in HEK293T lysate.

For `Nc1ncnc2c1nc(SCCNc1ccc([N+](=O)[O-])c3nonc13)n2[C@@H]1O[C@@H]2COP(=O)(O)O[C@H]2[C@H]1O` [8NBD-cAMP], the “BRET from mutant Rluc-OMP to 8NBD-cAMP” value in assay [1] is given as “pocket A-mutated Rluc-OMP^G126E retained the low-affinity interaction, whereas the pocket B mutants lost their interaction with 8NBD-cAMP”. In assay [2], the Kd is ~1.9 µM. What is called IC50 is the point on the concentration scale where inhibition reaches its midpoint. In assay [3], `Nc1nc2c(ncn2[C@@H]2O[C@@H]3COP(=O)(O)O[C@H]3[C@H]2O)c(=O)[nH]1` [cGMP] yielded an IC50 of 11 µM.
